The values that follow come from ChEMBL document CHEMBL5291721, “A preclinical secondary pharmacology resource illuminates target-adverse drug reaction associations of marketed drugs” (Nat Commun, 2023).

Assay [1] concerns the target T1, 5-hydroxytryptamine receptor 1A (Homo sapiens, UniProt P08908).
T1 sequence (P08908 whole entry): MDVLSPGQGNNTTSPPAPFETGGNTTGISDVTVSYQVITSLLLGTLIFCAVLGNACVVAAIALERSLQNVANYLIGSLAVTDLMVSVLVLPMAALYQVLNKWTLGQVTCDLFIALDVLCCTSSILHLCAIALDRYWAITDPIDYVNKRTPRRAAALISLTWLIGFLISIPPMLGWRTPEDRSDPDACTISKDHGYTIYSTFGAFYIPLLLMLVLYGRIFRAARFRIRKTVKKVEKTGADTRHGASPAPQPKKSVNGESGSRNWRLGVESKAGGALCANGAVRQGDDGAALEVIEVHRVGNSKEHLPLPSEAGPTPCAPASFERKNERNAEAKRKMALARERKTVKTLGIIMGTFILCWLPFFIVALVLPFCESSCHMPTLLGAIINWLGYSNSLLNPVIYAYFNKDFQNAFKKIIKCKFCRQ
In kind it is functional, cell-based.

For assay [2], the target named is Growth hormone secretagogue receptor type 1 (Homo sapiens, UniProt Q92847).
The target in another assay is T2, Thromboxane A2 receptor (Homo sapiens, UniProt P21731).
T2 sequence (P21731 whole entry): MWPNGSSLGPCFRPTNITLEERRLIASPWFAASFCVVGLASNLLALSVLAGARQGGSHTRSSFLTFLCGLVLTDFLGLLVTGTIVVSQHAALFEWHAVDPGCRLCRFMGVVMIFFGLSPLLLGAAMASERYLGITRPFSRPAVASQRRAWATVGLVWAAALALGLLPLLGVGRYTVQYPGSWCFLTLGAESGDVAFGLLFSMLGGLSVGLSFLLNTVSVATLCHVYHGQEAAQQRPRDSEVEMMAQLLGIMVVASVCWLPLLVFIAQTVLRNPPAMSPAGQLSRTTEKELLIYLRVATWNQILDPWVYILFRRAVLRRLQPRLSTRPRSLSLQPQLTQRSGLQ

For assay [3], the target named is T3, Muscarinic acetylcholine receptor M1 (Homo sapiens, UniProt P11229).
T3 sequence (P11229 whole entry): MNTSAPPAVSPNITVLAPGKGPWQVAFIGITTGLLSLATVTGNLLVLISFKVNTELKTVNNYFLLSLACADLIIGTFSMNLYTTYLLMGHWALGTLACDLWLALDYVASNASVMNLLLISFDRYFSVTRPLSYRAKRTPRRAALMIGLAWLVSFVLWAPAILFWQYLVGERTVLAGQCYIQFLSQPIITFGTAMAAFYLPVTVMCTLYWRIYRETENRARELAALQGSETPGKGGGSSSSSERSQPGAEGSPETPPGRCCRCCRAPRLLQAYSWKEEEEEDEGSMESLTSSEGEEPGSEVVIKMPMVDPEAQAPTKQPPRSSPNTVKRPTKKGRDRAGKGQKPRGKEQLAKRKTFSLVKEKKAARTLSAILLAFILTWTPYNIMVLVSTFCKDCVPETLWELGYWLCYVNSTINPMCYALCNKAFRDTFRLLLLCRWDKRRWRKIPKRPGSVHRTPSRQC
In kind it is functional.

The next assay concerns the target Adenosine receptor A2a (Homo sapiens, UniProt P29274).
For assay [4], the target named is 5-hydroxytryptamine receptor 2B (Homo sapiens, UniProt P41595). Type of assay: functional, cell-based.
Assay [5] deals with Sodium-dependent noradrenaline transporter (Homo sapiens, UniProt P23975).
Assay [6] addresses Voltage-gated inwardly rectifying potassium channel KCNH2 (Homo sapiens, UniProt Q12809). Type of assay: functional. The conditions noted are these: read-out: AC50.
Assay [7] addresses T4, Alpha-2C adrenergic receptor (Homo sapiens, UniProt P18825).
T4 sequence (P18825 whole entry): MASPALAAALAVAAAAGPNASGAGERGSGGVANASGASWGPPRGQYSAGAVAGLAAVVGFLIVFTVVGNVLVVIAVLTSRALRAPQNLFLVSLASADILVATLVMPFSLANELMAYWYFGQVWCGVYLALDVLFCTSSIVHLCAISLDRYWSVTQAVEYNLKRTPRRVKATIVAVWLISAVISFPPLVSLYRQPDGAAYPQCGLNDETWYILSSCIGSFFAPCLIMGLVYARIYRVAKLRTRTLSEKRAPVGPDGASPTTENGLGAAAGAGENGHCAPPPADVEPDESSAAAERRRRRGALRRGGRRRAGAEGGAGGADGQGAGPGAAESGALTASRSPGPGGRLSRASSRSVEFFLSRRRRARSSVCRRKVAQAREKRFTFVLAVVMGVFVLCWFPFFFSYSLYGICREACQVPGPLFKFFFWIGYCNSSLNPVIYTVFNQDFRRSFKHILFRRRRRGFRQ
Type of assay: functional.

A further assay has as its target T5, Endothelin-1 receptor (Homo sapiens, UniProt P25101).
T5 sequence (P25101 whole entry): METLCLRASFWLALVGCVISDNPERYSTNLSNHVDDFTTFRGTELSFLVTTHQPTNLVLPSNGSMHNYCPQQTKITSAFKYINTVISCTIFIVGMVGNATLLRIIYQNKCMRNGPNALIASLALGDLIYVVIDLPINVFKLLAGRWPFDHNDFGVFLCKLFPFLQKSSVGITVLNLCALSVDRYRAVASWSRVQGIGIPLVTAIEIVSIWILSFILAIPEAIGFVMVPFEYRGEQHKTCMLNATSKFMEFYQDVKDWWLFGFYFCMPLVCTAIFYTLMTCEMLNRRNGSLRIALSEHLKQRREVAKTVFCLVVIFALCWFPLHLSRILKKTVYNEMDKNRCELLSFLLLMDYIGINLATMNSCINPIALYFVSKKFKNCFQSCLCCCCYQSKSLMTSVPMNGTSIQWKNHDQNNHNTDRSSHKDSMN

The target of the next assay is Cannabinoid receptor 1 (Homo sapiens, UniProt P21554). Type of assay: functional, cell-based.
For the next assay, the target named is D(3) dopamine receptor (Homo sapiens, UniProt P35462).
Further: assay procedure not described here.

Sequence of Adenosine receptor A2a (P29274 whole entry): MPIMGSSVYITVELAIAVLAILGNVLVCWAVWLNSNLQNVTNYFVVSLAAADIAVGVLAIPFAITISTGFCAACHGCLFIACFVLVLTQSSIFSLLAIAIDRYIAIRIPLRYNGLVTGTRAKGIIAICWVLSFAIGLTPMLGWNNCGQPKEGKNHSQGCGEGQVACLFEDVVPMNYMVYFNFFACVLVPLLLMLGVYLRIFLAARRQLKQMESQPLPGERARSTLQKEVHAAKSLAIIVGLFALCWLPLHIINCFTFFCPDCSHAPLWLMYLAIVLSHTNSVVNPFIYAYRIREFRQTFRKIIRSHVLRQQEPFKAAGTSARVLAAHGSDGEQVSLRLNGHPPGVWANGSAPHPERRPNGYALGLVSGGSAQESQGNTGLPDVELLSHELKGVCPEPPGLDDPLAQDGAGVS
Sequence of Voltage-gated inwardly rectifying potassium channel KCNH2 (Q12809 whole entry): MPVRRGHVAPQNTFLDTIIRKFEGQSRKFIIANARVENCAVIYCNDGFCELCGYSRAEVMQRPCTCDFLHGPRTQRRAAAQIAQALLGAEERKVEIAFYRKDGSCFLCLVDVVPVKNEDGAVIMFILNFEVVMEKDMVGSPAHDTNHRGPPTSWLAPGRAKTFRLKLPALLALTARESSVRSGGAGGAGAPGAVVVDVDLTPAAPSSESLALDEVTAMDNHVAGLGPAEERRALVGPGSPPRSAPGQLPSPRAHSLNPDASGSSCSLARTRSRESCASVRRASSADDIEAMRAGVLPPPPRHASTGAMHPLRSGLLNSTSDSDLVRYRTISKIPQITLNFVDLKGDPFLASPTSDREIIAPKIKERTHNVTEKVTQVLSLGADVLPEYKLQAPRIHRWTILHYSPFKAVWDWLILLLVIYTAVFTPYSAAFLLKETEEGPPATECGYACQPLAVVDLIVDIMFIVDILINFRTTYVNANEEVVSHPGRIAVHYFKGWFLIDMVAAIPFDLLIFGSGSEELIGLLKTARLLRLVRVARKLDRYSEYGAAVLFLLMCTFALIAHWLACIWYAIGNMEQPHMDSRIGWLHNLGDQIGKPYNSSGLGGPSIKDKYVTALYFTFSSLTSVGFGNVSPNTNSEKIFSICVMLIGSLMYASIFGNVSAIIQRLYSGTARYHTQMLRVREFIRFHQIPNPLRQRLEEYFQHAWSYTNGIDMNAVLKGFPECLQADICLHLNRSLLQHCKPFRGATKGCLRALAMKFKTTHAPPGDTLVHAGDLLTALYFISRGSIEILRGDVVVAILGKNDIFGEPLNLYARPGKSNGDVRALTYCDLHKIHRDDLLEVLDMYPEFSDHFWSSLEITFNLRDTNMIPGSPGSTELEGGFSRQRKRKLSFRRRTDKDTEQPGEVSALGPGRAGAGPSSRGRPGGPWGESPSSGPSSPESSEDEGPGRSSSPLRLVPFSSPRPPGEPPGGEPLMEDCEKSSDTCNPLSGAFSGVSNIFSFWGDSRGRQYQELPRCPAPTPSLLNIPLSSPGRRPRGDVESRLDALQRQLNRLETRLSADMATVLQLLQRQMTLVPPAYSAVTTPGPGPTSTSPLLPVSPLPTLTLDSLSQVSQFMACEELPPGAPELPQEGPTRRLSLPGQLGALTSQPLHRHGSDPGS
Sequence of Cannabinoid receptor 1 (P21554 whole entry): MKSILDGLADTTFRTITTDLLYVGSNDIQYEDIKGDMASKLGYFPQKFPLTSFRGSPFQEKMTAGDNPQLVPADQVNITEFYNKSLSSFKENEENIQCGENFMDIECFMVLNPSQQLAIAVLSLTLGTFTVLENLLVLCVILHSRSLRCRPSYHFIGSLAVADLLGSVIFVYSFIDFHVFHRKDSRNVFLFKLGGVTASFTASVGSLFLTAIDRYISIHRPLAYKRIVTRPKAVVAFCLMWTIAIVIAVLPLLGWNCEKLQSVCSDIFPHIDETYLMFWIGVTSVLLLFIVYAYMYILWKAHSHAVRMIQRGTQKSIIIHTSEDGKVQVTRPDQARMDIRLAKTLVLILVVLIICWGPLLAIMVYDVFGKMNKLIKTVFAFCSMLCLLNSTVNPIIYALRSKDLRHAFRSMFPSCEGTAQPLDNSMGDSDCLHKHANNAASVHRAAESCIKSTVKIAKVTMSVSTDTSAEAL
Sequence of D(3) dopamine receptor (P35462 whole entry): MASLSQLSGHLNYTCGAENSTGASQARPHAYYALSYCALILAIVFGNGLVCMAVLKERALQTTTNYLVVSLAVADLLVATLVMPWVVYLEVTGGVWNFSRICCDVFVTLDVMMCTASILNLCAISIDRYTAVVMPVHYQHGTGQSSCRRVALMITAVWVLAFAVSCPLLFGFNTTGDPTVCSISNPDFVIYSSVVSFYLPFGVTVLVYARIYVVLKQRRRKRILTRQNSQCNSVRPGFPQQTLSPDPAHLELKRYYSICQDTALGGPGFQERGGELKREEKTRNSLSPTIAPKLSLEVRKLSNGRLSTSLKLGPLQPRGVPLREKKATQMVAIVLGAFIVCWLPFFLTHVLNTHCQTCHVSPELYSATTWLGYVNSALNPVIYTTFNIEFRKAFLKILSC
Sequence of 5-hydroxytryptamine receptor 2B (P41595 whole entry): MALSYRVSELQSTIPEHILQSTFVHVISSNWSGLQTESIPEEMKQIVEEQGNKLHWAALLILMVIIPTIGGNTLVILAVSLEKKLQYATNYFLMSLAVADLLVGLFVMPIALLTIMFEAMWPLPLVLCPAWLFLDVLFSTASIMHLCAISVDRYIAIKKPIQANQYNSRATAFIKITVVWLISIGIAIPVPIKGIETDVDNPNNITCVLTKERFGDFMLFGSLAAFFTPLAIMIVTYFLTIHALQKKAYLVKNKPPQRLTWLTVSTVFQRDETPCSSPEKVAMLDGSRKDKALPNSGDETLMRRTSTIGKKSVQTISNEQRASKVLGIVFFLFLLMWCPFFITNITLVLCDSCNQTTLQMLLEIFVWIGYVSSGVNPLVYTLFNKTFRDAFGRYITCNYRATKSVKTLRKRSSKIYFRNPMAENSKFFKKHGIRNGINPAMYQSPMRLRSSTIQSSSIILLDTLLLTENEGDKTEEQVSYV
Sequence of Sodium-dependent noradrenaline transporter (P23975 whole entry): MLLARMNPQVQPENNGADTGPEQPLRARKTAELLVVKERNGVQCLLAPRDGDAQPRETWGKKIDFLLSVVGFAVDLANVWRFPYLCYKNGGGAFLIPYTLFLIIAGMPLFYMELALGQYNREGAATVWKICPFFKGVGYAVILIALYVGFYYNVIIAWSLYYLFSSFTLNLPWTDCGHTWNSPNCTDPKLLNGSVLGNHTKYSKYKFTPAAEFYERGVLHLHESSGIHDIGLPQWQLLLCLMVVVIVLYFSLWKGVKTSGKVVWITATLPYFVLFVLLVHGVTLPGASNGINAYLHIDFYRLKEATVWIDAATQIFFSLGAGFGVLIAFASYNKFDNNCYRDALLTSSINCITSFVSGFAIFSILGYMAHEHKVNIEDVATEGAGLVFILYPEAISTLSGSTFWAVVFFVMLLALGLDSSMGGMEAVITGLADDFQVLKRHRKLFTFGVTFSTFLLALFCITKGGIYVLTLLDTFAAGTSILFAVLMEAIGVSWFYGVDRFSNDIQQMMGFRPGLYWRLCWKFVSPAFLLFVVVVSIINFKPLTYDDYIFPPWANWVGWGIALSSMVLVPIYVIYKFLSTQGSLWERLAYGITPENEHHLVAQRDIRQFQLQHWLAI
Sequence of Growth hormone secretagogue receptor type 1 (Q92847 whole entry): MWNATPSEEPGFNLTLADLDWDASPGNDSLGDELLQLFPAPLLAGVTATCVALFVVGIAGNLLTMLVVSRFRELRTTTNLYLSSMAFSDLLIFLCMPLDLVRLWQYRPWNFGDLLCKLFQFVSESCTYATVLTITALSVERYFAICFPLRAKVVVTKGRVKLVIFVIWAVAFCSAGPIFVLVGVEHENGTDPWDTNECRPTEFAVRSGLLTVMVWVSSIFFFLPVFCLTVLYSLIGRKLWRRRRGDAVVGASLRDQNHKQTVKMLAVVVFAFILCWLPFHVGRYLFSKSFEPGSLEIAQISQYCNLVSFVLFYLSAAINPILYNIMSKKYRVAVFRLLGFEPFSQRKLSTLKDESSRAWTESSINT

In the case of `CCCc1nc(C(C)(C)O)c(C(=O)OCc2oc(=O)oc2C)n1Cc1ccc(-c2ccccc2-c2nnn[nH]2)cc1` [OLMESARTAN MEDOXOMIL], the AC50 is greater than 10 µM in assay [1]; greater than 50 µM in assay [2]; greater than 50 µM on Thromboxane A2 receptor; greater than 10 µM in assay [3]; greater than 10 µM on Adenosine receptor A2a; greater than 10 µM in assay [4]. In addition, the AC50 in assay [5] is greater than 30 µM; in assay [6] it was greater than 30 µM; in [7] it was greater than 10 µM; on Endothelin-1 receptor, greater than 50 µM; on Cannabinoid receptor 1, greater than 30 µM; at D(3) dopamine receptor, greater than 10 µM.
Consider `COc1ccc(CCN(C)CCCC(C#N)(c2cc(OC)c(OC)c(OC)c2)C(C)C)cc1OC` (configuration not stated) [GALLOPAMIL], for which the AC50 (in assay [1]; in assay [2]; at Thromboxane A2 receptor; in [3]; at Adenosine receptor A2a; in assay [4]) was greater than 30 µM in each case. Moreover, the AC50 in assay [5] is greater than 30 µM; in assay [6], 1.9 µM; in [7] it was 7.6 µM; on Endothelin-1 receptor, greater than 30 µM; at Cannabinoid receptor 1, greater than 30 µM; on D(3) dopamine receptor, 3.3 µM.
Take `O=C(NCCNCC(O)COc1ccc(O)cc1)N1CCOCC1` (configuration not stated) [XAMOTEROL]: the AC50 (in [1]; in assay [2]; on Thromboxane A2 receptor; in [3]; at Adenosine receptor A2a; in assay [4]) was greater than 30 µM in each case. Besides, the AC50 (in [5]; in assay [6]; in assay [7]; at Endothelin-1 receptor; at Cannabinoid receptor 1; at D(3) dopamine receptor) was greater than 30 µM in each case.
As for `COc1ccc(-c2ccc3cc(C(=O)O)ccc3c2)cc1C12CC3CC(CC(C3)C1)C2`, the AC50 (in [1]; in assay [2]; on Thromboxane A2 receptor; in assay [3]; on Adenosine receptor A2a; in [4]) was greater than 30 µM each time. Further, the AC50 (in [5]; in assay [6]; in [7]; on Endothelin-1 receptor; at Cannabinoid receptor 1; at D(3) dopamine receptor) was greater than 30 µM in each case.
Regarding `O=C(O)CCCCCCNC1c2ccccc2CCc2ccccc21` [AMINEPTINE], the AC50 (in [1]; in assay [2]; on Thromboxane A2 receptor; in assay [3]; on Adenosine receptor A2a; in assay [4]) was greater than 30 µM each time. For the same molecule, the AC50 (in assay [5]; in assay [6]; in assay [7]; at Endothelin-1 receptor; at Cannabinoid receptor 1; on D(3) dopamine receptor) was greater than 30 µM each time.
As for `CN1C(=O)C(O)N=C(c2ccccc2Cl)c2cc(Cl)ccc21` (configuration not stated) [LORMETAZEPAM], the AC50 (in assay [1]; in assay [2]; at Thromboxane A2 receptor; in assay [3]; at Adenosine receptor A2a; in assay [4]) was greater than 30 µM in each case. The AC50 (in assay [5]; in assay [6]; in assay [7]; on Endothelin-1 receptor; on Cannabinoid receptor 1; at D(3) dopamine receptor) was greater than 30 µM each time.
For the molecule `CCOC(=O)[C@H](CCc1ccccc1)N[C@@H](C)C(=O)N1C(=O)N(C)C[C@H]1C(=O)O`, the AC50 (in [1]; in [2]; on Thromboxane A2 receptor; in assay [3]; at Adenosine receptor A2a; in assay [4]) was greater than 30 µM in each case. For the same molecule, the AC50 (in assay [5]; in assay [6]; in assay [7]; on Endothelin-1 receptor; at Cannabinoid receptor 1; on D(3) dopamine receptor) was greater than 30 µM throughout.
On to `C=CCN1CCCC1CNC(=O)c1cc(S(N)(=O)=O)cc(OC)c1OC` (configuration not stated) [VERALIPRIDE], for which the AC50 (in [1]; in [2]; at Thromboxane A2 receptor; in assay [3]; at Adenosine receptor A2a; in [4]) was greater than 30 µM each time. Besides, the AC50 in assay [5] was greater than 30 µM; in assay [6], 7.6 µM; in assay [7], 10 µM; at Endothelin-1 receptor, greater than 30 µM; at Cannabinoid receptor 1 it was greater than 30 µM; on D(3) dopamine receptor, 0.003 µM.
Turning to `OC(CNCC(O)C1CCc2cc(F)ccc2O1)C1CCc2cc(F)ccc2O1` (configuration not stated) [NEBIVOLOL], the AC50 in assay [1] is 1.6 µM; in assay [2] it was 4.6 µM; on Thromboxane A2 receptor, greater than 30 µM; in assay [3] it was 19 µM; on Adenosine receptor A2a it was greater than 30 µM; in [4], greater than 30 µM. Also, the AC50 in [5] is 1.5 µM; in assay [6], 0.83 µM; in [7], 2 µM; on Endothelin-1 receptor it was greater than 30 µM; on Cannabinoid receptor 1 it was 24 µM; at D(3) dopamine receptor, 2 µM.
For the molecule `CC(=O)OCC(=O)[C@@]12N=C(C)O[C@@H]1C[C@H]1[C@@H]3CCC4=CC(=O)C=C[C@]4(C)[C@H]3[C@@H](O)C[C@@]12C` [DEFLAZACORT], the AC50 (in assay [1]; in assay [2]; at Thromboxane A2 receptor; in assay [3]; on Adenosine receptor A2a; in assay [4]) was greater than 30 µM in each case. Further, the AC50 (in [5]; in assay [6]; in [7]; on Endothelin-1 receptor; at Cannabinoid receptor 1; on D(3) dopamine receptor) was greater than 30 µM each time.
In the case of `Cc1ccc(-n2nccn2)c(C(=O)N2CCN(c3nc4cc(Cl)ccc4o3)CC[C@H]2C)c1` [SUVOREXANT], the AC50 was greater than 30 µM in [1]; greater than 30 µM in assay [2]; greater than 10 µM at Thromboxane A2 receptor; greater than 30 µM in assay [3]; greater than 30 µM on Adenosine receptor A2a; greater than 30 µM in [4]. For the same molecule, the concentration at half-maximal activity (AC50) in [5] is greater than 30 µM; in [6], 22 µM; in assay [7] it was greater than 30 µM; at Endothelin-1 receptor, greater than 30 µM; at Cannabinoid receptor 1 it was greater than 30 µM; at D(3) dopamine receptor, greater than 30 µM.

As a reminder, the AC50 is the concentration giving half of the maximal activity seen.
